Consider five compounds from PMC4170816 (Journal of Chemical Information and Modeling, 2014).

Where two headings read alike, the source gives them in different places.

One experiment concerns the target δ-opioid receptor. As to conditions: cited from earlier work.
For the next experiment, the target named is CB2-WT (Homo sapiens, UniProt P34972). Briefly: [3H]CP55940 binding to CB2-WT in buffer supplemented with NaCl. As to conditions: NaCl up to 1000 mM; CB2-WT transiently expressed on CHO cell membrane.
Chain of CB2-WT (P34972 whole entry): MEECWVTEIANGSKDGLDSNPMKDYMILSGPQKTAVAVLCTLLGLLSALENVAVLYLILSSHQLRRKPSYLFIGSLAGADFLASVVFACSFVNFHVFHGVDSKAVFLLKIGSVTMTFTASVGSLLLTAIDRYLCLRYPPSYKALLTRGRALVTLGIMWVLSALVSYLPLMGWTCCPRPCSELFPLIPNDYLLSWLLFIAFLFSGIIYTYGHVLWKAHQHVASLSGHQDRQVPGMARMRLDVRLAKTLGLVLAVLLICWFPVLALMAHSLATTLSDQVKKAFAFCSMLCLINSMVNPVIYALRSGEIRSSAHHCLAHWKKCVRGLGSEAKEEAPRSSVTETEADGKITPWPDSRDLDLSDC
The test system of another experiment is A2AAR. As to conditions: sodium 150 mM; cited from earlier work.
In another experiment the target is wild-type CB2 (WT) (Homo sapiens, UniProt P34972). Briefly: Competition binding assay, displacement of [3H]-CP-55940, membranes of CHO cells. In general terms: In a radioligand displacement assay an active substance lowers the binding of a labelled ligand.
Chain of wild-type CB2 (WT) (P34972 whole entry): as above
A further experiment has as its target CB1. As to conditions: read-out: Ki to the CB1 receptor; cited from earlier work.

Turning to “[D-Ala^2, D-Leu^5]-Enkephalin [[^3H]DADLE]”, the inhibition constant Ki on δ-opioid receptor (read-out: Ki value with 0 mM NaCl, 0 mM NaCl) is 280 nM; on δ-opioid receptor (read-out: Ki value with 140 mM NaCl, 140 mM NaCl) it was 2800 nM.
As to `[Cl-].[Na+]` [Na^+, NaCl], the “effect on the binding of the CB2 agonist [3H]CP55940” value on CB2-WT is recorded as “did not have any effect”.
`CCNC(=O)[C@H]1O[C@@H](n2cnc3c(N)ncnc32)[C@H](O)[C@@H]1O` [[^3H]NECA, 5′-N-ethylcarboxamidoadenosine]: the “binding detected in presence of sodium” value in the experiment with A2AAR is 25%.
As for `N=C(N)NC(=O)c1nc(Cl)c(N)nc1N` [amiloride], the inhibitory constant (Ki) on wild-type CB2 (WT) (Ki value at CB2, competition binding, no added NaCl) came to 495000 nM; at wild-type CB2 (WT) (Ki value at CB2 with 150 mM NaCl, with 150 mM NaCl) it was 310000 nM.
Consider `Cc1ccc(Cn2nc(C(=O)N[C@@H]3C(C)(C)[C@@H]4CC[C@@]3(C)C4)cc2-c2ccc(Cl)c(C)c2)cc1` [SR144528, 5-(4-chloro-3-methylphenyl)-1-[(4-methylphenyl)methyl]-N-[(1S,2S,4R)-1,3,3-trimethylbicyclo[2.2.1]hept-2-yl]-1H-pyrazole-3-carboxamide], for which the Ki at CB1 was 400 nM.

What is called Ki is a measure of affinity in units of concentration, obtained from inhibition or displacement.
